No end group written: not given here.
Experiments:
E. coli 0111:B4 LPS = experiment: LPS model in vivo (E. coli LPS-induced shock); parameters: species or system C57BL/6 mice; settings: for IFN-γ in blood / IL-6 in blood / MCP-1 in blood / TNF-α in blood / IL-10 in blood / Platelet counts: 0.5 mg peptide; for IFN-γ in blood / IL-6 in blood / MCP-1 in blood / TNF-α in blood: 8 and 20 h after LPS injection; for IL-10 in blood: 8 or 20 h after LPS injection; for Survival: 18 mg/kg E. coli LPS i.p., peptide i.p., followed 7 days; for Weight: followed for 7 days; for Platelet counts: 8 and 20 h after LPS
Method: Septic shock in C57BL6 mice was induced by intraperitoneal injection of 18 mg/kg E. coli LPS. Sixty minutes later KYE28 and KYE21 (0.2 and 0.5 mg; in PBS) or buffer only was administered. […] (C) Peptide treatment affects the number of platelets in the LPS-induced shock model. (D) In separate experiments mice were injected with LPS followed by administration of 0.5 mg of KYE28 or KYE21, or buffer. Animals were sacrificed at 8 h, 20 h, or after 7 days and the number of platelets in blood counted using the VetScanSystem. […] Cytokines were measured in blood from animals sacrificed at 8 or 20 h after LPS injection. […] C57BL6 were i.p. injected with […] LPS followed by 0.5 mg of KYE28 After 20 h mice were sacrificed and cytokine levels in blood were determined. (KYE28; n=10). All data are representative of two independent experiment.
RAW 264.7 macrophages were stimulated with 10 ng/ml E. coli or P. aeruginosa LPS in combination with indicated concentrations NLF20. […] Clotting times were determined without (control) or with 20 μM of the peptide. Activated partial thromboplastin time (aPTT) was measured by incubating the peptides at the indicated concentrations in citrated human plasma for 1 minute followed by the addition of 100 μl aPTT reagent (aPTT Automate, Diagnostica Stago) for 60 seconds at 37° C. Clotting was initiated by the addition of CaCl2 solution. Results illustrating the prothombin time assay (PT) and thrombin clotting time (TCT) are also presented. (C) Septic shock in C57BL6 mice was induced by intraperitoneal injection of 18 mg/kg E. coli LPS. NLF20 (0.2 or 0.5 mg in 10 mM Tris, pH 7.4) or buffer only was administered. […] (E) Weight was followed for 7 days. […] In separate experiments mice were injected with LPS followed by administration of 0.5 mg of NLF20, or buffer. Animals were sacrificed at 8 h, 20 h, and survivors after 7 days and the number of platelets in blood counted using the VetScanSystem. (F) Administration of NLF20 (0.5 mg) selectively modulates the cytokine response compared to control mice. Cytokines were measured in blood from animals sacrificed at 8 or 20 h after LPS injection. (G) NLF abrogates inflammation in lungs. Lungs were analyzed by light microscopy after staining with hematoxylin-eosin, or analyzed by scanning electron microscopy 20 h after LPS injection i.p., followed by treatment with NLF20 (0.5 mg) or buffer.
(§1) Male C57BL/6 mice (8-10 weeks, 22+/−5 g), were injected intraperitoneally with 18 mg E. coli 0111:B4 LPS (Sigma) per kg of body weight. Thirty minutes after LPS injection, 0.5 mg KYE28, KYE21 or buffer alone was injected intraperitoneally into the mice. Survival and status was followed during seven days. For blood collection and histochemistry, mice were sacrificed 20 h after LPS challenge, and lungs were removed and fixed. These experiments were approved by the Laboratory Animal Ethics Committee of Malmö/Lund.
as §1, with “NLF20” for “KYE28, KYE21”

[1] = test system: E. coli, P. aeruginosa and S. aureus; experiment: Viable count assay; type: cell-based; settings: for Antibacterial activity in viable count assays / Time within which bacterial killing occurred: 10 mM Tris, 0.15 M NaCl; for Antibacterial activity in viable count assays: with or without 20% human citrate plasma; for Time within which bacterial killing occurred: 30 μM, pH 7.4, 20% plasma
Method: E. coli ATCC 25922 bacteria were grown to mid-logarithmic phase in Todd-Hewitt (TH) medium. Bacteria were washed and diluted in 10 mM Tris, pH 7.4 containing 5 mM glucose. E. coli ATCC 25922 ([…]; 2×10^6 cfu/ml) were incubated, at 37° C. for 2 h with peptides at the indicated concentrations. Other experiments with the TFPI-peptides and LL-37 were performed in 10 mM Tris, pH 7.4, containing also 0.15 M NaCl, with normal or heat inactivated 20% citrate-plasma (PP). Serial dilutions of the incubation mixture were plated on TH agar, followed by incubation at 37° C. overnight and cfu determination.
(§2) E. coli ATCC 25922, P. aeruginosa 15159, or S. aureus ATCC 29213 bacteria were grown to mid-logarithmic phase in Todd-Hewitt (TH) medium (Becton and Dickinson, Maryland, USA). The microorganisms were then washed and diluted in 10 mM Tris, pH 7.4 containing 5 mM glucose. Following this, bacteria (50 μl; 2×10^6 cfu/ml) were incubated, at 37° C. for 2 hours, with KYE28, KYE21 or LL-37 (at 0.03, 0.06, 0.3, 0.6, 3, 6, 30, 60 μM) in 10 mM Tris, 0.15 M NaCl, with or without 20% human citrate-plasma. To quantify the bactericidal activity, serial dilutions of the incubation mixtures were plated on TH agar, followed by incubation at 37° C. overnight and the number of colony-forming units was determined. 100% survival was defined as total survival of bacteria in the same buffer and under the same condition in the absence of peptide. Significance was determined using the statistical software SigmaStat (SPSS Inc., Chicago, Ill., USA).
as §2, with “NLF20” for “KYE28, KYE21”, “citrate-plasma. In the experiments using 50% whole blood, S. aureus ATCC 29213 and P. aeruginosa ATCC 27853 bacteria (50 μl; 2×10^8 cfu/ml) were incubated at 37° C. for 1 hour in the presence of peptide at 60 (for P. aeruginosa) and 120 μM (P. aeruginosa and S. aureus).” for “citrate-plasma.”

erythrocytes = type: cell-based, human

Row | Sequence | IFN-γ in blood (E. coli 0111:B4 LPS) | IL-6 in blood (E. coli 0111:B4 LPS) | MCP-1 in blood (E. coli 0111:B4 LPS) | TNF-α in blood (E. coli 0111:B4 LPS) | IL-10 in blood (E. coli 0111:B4 LPS) | Survival (E. coli 0111:B4 LPS) | Weight (E. coli 0111:B4 LPS) | Antibacterial activity in viable count assays [1] | Platelet counts (E. coli 0111:B4 LPS) | Hemolytic activity (erythrocytes) | Time within which bacterial killing occurred [1] [min] | Antibacterial activity in presence of human citrated plasma (viable count) ([1]; 20% human citrate plasma vs buffer)
1 | KYEITTIHNLFRKLTHRLFRR [KYE21] | significant reductions | significant reductions | significant reductions | significant reductions | an increase in IL-10 was observed after 8 h | dramatic improvement on survival | full recovery of weight | significant antibacterial activity | – | – | – | –
2 | KYEITTIHNLFRKLTHRLFRRNFGYTLR [KYE28] | significant reductions | significant reductions | significant reductions | significant reductions | an increase in IL-10 was observed after 8 h | dramatic improvement on survival | full recovery of weight | significant antibacterial activity | increased platelet levels after 20 h | significant hemolytic activities at higher doses (30-60 μM) | 5 to 20 | –
3 | NLFRKLTHRLFRRNFGYTLR [NLF20] | significant reductions | – | – | – | an increase in IL-10 was observed after 8 h and 20 h | dramatic improvement on survival | full recovery of weight | displays significant antibacterial activity | significantly increased platelets | hemolytic activities at higher doses (30-60 μM) | 5 to 20 | retained, and for E. coli and S. aureus, even enhanced
